{
  "source": "patent US8883842B2",
  "about": "“Use of HDAC inhibitors for the treatment of myeloma” (Novartis AG, priority 2005, dated 2014)",
  "key": {"[1]": {"system": "MM cell lines resistant to conventional therapies", "experiment": "Growth inhibition (MTS assay and tritiated-thymidine uptake) in MM cell lines", "type": "cell-based", "conditions": "Homo sapiens, 48 h, read-out: median inhibitory concentration, myeloma cell growth", "experimental": "(§1) Bortezomib-sensitive (MM.1S) and Bortezomib-resistant (MM.1R) human MM cell lines, as well as RPMI-8226 cells resistant to Doxorubicin (Dox 40), Mitoxantrone (MR20), and Melphalan (LR5), were cultured in RPMI-1640 media (Cellgro, Mediatech, VA) with 10% fetal bovine serum, 2 mmol/L L-glutamine (GIBCO, Grand Island, N.Y.), 100 U/mL penicillin, and […] streptomycin (GIBCO). Drug-resistant cell lines were cultured with either doxorubicin, mitoxantrone, melphalan or bortezomib to confirm their lack of drug sensitivity. MM patient cells were purified (>95% CD138+) by positive selection with anti-CD138 MACS Microbeads (Miltenyi, San Diego, Calif.).\n(§2) DNA synthesis was measured by 3H-thymidine (NEN Products, Boston, Mass.) uptake. Cells were pulsed with 3H-thymidine (0.5 μCi/well) during the last 8 hours of 48-hour cultures. All of the experiments were performed in triplicate.\n(§3) Cells from 24-, 48- or 72-hour cultures in 200 μL media plus drug were pulsed with 40 μL of 5 mg/mL MTS to each well for the last 4 hours of the cultures. Absorbance was measured at 490 nm using a spectrophotometer (Molecular Devices Corp., Sunnyvale, Calif.)."}, "[2]": {"system": "MM patient cells", "experiment": "Growth inhibition (MTS assay and tritiated-thymidine uptake) in MM patient cells", "type": "cell-based", "conditions": "Homo sapiens, 48 hours, read-out: median inhibitory concentration, myeloma cell growth", "experimental": "as §1, §2, §3"}, "[3]": {"system": "MM.1S cells co-cultured with bone marrow stromal cells", "experiment": "MM.1S proliferation in co-culture with bone marrow stromal cells", "type": "cell-based, human", "experimental": "Bone marrow specimens were obtained from patients with MM. Mononuclear cells, separated by FicoII-Hipaque density sedimentation, were used to establish long-term BM cultures. When an adherent cell monolayer had developed, cells were harvested in HBSS containing 0.25% trypsin and 0.02% EDTA and were washed and collected by centrifugation. The BMSCs were then plated onto flat-bottom 96-well plates overnight, and then 3×10^4 mM.1S cells were added for 48 hours. 150 μL of supernatant was removed and cells were pulsed with [3H]thymidine (0.5 μCi/well) during the last 8 hours of 48-hour cultures."}, "[4]": {"system": "MM.1S cells", "experiment": "Western blot of apoptosis and cell cycle markers in MM.1S cells", "type": "cell-based, human", "description": "(§4) Cell lysates were subjected to SDS-PAGE, transferred to polyvinylidene difluoride (PVDF) membrane, and immunoblotted with anti-acetylated histone (Upstate Biotechnology, Lake Placid, N.Y.), anti-p21 antibody (Santa Cruz Biotech, Santa Cruz, Calif.), anti-PARP; anti-caspase-8, anti-caspase-9 and anti-caspase 3 (Cell Signaling, MA); as well as anti-polyubiquitin conjugates, anti-LMP7, anti-β5 (Affiniti, Mamhead, Exeter, Devon, UK). Membranes were stripped and re-probed with anti-tubulin or anti-β-actin (Sigma, St Louis, Mo.) to ensure equivalent protein loading."}, "[5]": {"system": "MM cells", "experiment": "Combination with proteasome inhibitor bortezomib on MM cells", "type": "cell-based, human", "experimental": "DNA synthesis was measured by 3H-thymidine (NEN Products, Boston, Mass.) uptake. Cells were pulsed with 3H-thymidine (0.5 μCi/well) during the last 8 hours of 48-hour cultures. All of the experiments were performed in triplicate. Statistical significance of differences observed in drug-treated versus control cultures was determined using Student's t test. The minimal level of significance was p<0.05. […] The survival curves for mice were computed using the Kaplan-Meier method. The survival time differences between the control and treated group were compared using a log-rank test. The median survival times were compared using the Fisher-exact test. To compare the rate of tumor growth in the two arms, a linear mixed effect model (random coefficient model) was fitted."}, "[6]": {"molecular_target": "T1, HDAC6, or tubulin deacetylase (TDAC) (Homo sapiens, UniProt Q9UBN7)", "T1 construct": "endogenous in cells; host or cells: MM.1S cells", "T1 sequence (Q9UBN7 1-1215)": "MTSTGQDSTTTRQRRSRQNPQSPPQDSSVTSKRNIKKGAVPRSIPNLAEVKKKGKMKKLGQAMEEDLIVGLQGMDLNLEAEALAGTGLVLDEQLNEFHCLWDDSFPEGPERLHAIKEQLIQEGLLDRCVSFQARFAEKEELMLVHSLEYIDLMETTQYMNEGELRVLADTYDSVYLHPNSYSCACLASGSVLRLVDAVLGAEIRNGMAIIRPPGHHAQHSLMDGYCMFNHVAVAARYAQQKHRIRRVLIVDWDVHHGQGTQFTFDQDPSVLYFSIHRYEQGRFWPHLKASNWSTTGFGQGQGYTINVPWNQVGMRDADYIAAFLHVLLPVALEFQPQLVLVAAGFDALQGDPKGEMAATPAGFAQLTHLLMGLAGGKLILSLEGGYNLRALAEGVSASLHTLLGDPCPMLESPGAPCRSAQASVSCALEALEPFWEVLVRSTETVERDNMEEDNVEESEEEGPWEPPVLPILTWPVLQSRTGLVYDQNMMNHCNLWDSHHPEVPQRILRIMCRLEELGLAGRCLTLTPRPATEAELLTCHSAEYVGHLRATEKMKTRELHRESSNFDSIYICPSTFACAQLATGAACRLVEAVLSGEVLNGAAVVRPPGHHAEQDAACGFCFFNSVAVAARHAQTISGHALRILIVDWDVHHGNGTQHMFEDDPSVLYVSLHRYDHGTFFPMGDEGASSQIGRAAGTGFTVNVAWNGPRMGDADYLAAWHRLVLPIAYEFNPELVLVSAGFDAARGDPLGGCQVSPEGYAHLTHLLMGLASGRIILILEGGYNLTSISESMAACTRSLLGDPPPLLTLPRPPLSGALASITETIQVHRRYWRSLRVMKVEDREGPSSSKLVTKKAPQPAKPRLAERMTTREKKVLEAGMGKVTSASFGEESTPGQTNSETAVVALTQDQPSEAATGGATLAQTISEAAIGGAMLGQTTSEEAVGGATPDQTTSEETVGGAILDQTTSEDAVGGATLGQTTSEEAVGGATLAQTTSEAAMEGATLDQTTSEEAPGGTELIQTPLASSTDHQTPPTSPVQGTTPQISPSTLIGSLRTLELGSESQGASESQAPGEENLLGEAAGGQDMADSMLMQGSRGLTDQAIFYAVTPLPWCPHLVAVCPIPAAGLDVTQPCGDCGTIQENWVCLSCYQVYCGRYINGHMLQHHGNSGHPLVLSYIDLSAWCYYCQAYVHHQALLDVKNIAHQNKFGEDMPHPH", "experiment": "Inhibition of TDAC (HDAC6, tubulin deacetylase) in MM.1S cells", "type": "cell-based", "conditions": "low nanomolar concentrations", "description": "as §4"}},
  "note": "pIC50: −log10 of the molar value.",
  "data": [
    {"compound": "Cc1[nH]c2ccccc2c1CCNCc1ccc(/C=C/C(=O)NO)cc1", "note": "[Compound (III), N-hydroxy-3-[4-[[[2-(2-methyl-1H-indol-3-yl)-ethyl]-amino]methyl]phenyl]-2E-2-propenamide]", "values": [
      {"measurement": "pIC50", "setting": "[1]", "result": "> 8.00"},
      {"measurement": "pIC50", "setting": "[2]", "result": "> 8.00"},
      {"measurement": "MM.1S myeloma cell proliferation", "setting": "[3]", "result": "inhibited"},
      {"measurement": "c-myc expression", "setting": "[4]", "result": "down-regulation"},
      {"measurement": "p21 expression", "setting": "[4]", "result": "up-regulation"},
      {"measurement": "cleavage of caspase 8, caspase 9, caspase 3 and PARP", "setting": "[4]; 20 nM", "result": "Significant cleavage"},
      {"measurement": "activity in combination with bortezomib", "setting": "[5]", "result": "Synergistic activity"},
      {"measurement": "inhibition of TDAC", "setting": "[6]", "result": "dose-dependent inhibition"}
    ]}
  ]
}
